From US20070161547A1, “Modulation of survivin expression” (priority 2003, published 2007)
Like-named read-outs stand apart in the source and are kept apart here. d = 2'-deoxy (DNA)

Experiments:
survivin protein = experiment: IC50 of dsRNA for survivin protein, quantitative Western blot ("W"); type: cell-based, human; details: for IC50: W (Western blot), HeLa cells
Protocol: Western blot analysis (immunoblot analysis) is carried out using standard methods. Cells are harvested 16-20 hours after oligonucleotide treatment, washed once with PBS, suspended in Laemmli buffer (100 μl/well), boiled for 5 minutes and loaded on a 16% SDS-PAGE gel. Gels are run for 1.5 hours at 150 V, and transferred to membrane for western blotting. Appropriate primary antibody directed to survivin is used, with a radiolabelled or fluorescently labeled secondary antibody directed against the primary antibody species. Bands are visualized using a PHOSPHORIMAGER™ (Molecular Dynamics, Sunnyvale, Calif.).
(§1) For western blot analysis, cells are plated in 10 cm tissue culture dishes (Falcon, #3003) at a density of 7.5×10^5 cells/dish. For RT-PCR analysis, 96-well plates (Corning Incorporated, #3596) are plated with 1×10^4 cells/well. Lipofectin (GIBCO/Invitrogen) transfection reagent is used at a concentration of 3 ul/ml OPTIMEM reduced serum medium (Gibco/Invitrogen)/100 nM siRNA duplex. Lipofectin reagent is incubated with OPTIMEM medium for 30 minutes prior to the addition of siRNA. The desired amount of siRNA is added and mixed. Further 1:1 dilutions are performed in OPTIMEM. Cells are washed twice with 1× phosphate buffered saline and then treated with the siRNA/Lipofectin mixture in OPTIMEM. After a 4 hr incubation period, OPTIMEM medium is replaced with complete growth medium. Cells are harvested after additional 16-20 hrs for Western blot or RT-PCR analysis.
At the end of the incubation period culture medium is removed and cells are washed twice with PBS. Cells are lysed in RIPA buffer (20 mM Tris-HCl, pH 7.4, 5 mM EDTA, 50 mM NaCl, 10 mM Sodium Pyrophosphate, 50 mM Sodium Fluoride, and 1% Nonidet P40) plus Complete™ Mini protease inhibitor tablets (Roche, #1836153) and 1 mM Sodium orthovanadate (Sigma) by directly adding buffer to the plate. Lysates are collected by scrapping, transferred to microfuge tubes and cleared from the cellular debris by centrifugation at 14,000 rpm for 30 minutes at 4° C. Protein concentrations are determined using BCA protein assay yeagents (Pierce). Total cellular protein is subjected to SDS-PAGE and transferred onto Immobilon-P membranes (Millipore, #IPVHO91). Membranes are probed with primary antibodies to survivin (R&D Systems, #AF886) and to β-Actin (Sigma, #A5441). Horseradish peroxidase linked Anti-rabbit Ig, and anti-mouse Ig, antibodies (Pharmacia) are used as secondary antibodies. Antigen-antibody complexes are visualized by incubation of membrane in SuperSigmal West Pico chemiluminescence reagents (Pierce) for 5 minutes followed by capturing of the chemiluminescence using Fluor-S imager (Biorad) equipped with the cool CCD camera. The protein bands of interest for each sample are quantified using Quantity One software (Biorad). The percentage inhibition for each samples are calculated by comparing the survivin/Actin protein ratio for the sample to survivin/Actin protein ratio for the untreated control. The IC50 is derived from the non-linear regression analysis of the percentage inhibition data using GraphPad Prism software (GraphPad Software).
The constructs tested comprise the antisense strand in the 5′-3′ orientation, and the sense strand in the 5′ to 3′ orientation, In Table 15, “D” is dose response (mRNA levels) and “W” is Western blot. All internucleoside linkages are phosphodiester unless otherwise noted by a lowercase “s” indicating a phosphorothioate linkage.

human survivin mRNA = experiment: IC50 of dsRNA for survivin mRNA, dose response by quantitative RT-PCR ("D"); type: cell-based
Protocol: Representative parameters that can be studied include, for example, translation of survivin mRNAs or survivin protein synthesis; effect on surrogate markers; or any other parameter that is indicative of potential dsRNA therapeutic effectiveness that can be conveniently measured in vitro.
as §1
Total RNA is isolated using RNeasy® 96 kit according to recommended protocol (Qiagen). Briefly, cells are washed with 200 ul PBS after removal of growth medium. Following washing, 100 μl buffer RLT is added, plate is shaken vigorously for about 20 seconds. To each well 100 μl 70% ethanol are added and mixed by pipetting up and down three times. Samples are then applied into the wells of the RNeasy 96 plate placed in the QIAvac top base of the QIAvac 96 manifold, which is attached to a vacuum source. Vacuum is applied for 30 seconds or until transfer is complete. To each well 80 μl of DNase I incubation mix (20 mM Tris-HCl, pH 8.4, 2 mM MgCl2, 50 mM KCl and 225 Units/ml DNase I from Invitrogen) is added and incubated at room temperature for 30 minutes. Buffer RW1 (1 ml/well) is added and the vacuum is applied for 30 seconds. Buffer RPE (1 ml/well) is added to each well and vacuum is applied for 30 seconds. Washing steps with buffer RW1 and RPE1 are repeated once more. The plate is then removed from the manifold and blotted dry on paper towels. The plate is placed back in the QIAvac manifold and the vacuum is applied for 10 minutes. To elute RNA 30 μl of RNase-free water is added directly onto the membrane of each well, incubated for 1 minutes and vacuum is applied for 30 seconds. In order to maximize the recovery of total RNA the elution step is repeated with additional 30 μl/well RNase-free water.
Quantitation of survivin and GAPDH mRNA levels is determined by real-time quantitative RT-PCR using the ABI PRISM® 7900 Sequence Detection System (Applied Biosystems). RT-PCR reactions are carried out by adding 15 ul of TaqMan One Step PCR Master Mix (Applied Biosystems, #4309169) reagents (containing 100 nM each of forward primer and reverse primer, and 200 nM probe) to 96-well plates with 10 μl total RNA. For human survivin, the forward PCR primer is: 5′[…]3′ (SEQ ID NO: 186), and the reverse primer is: 5′[…]3′ (SEQ ID NO: 187). The survivin TaqMan® probe used is 5′(FAM)[…]3′ (SEQ ID NO: 188) (Biosearch Technologies, Inc.). This primer-probe set, designed to SEQ ID No 14 was used for all experiments in Examples 15 to the end. For human GAPDH, TaqMan GAPDH Control Reagent Kit is used (Applied Biosystems, #402869). The percentage inhibition for each samples are calculated by comparing the survivin/GAPDH mRNA ratio for the sample to survivin/GAPDH mRNA ratio for the untreated control. The IC50 is derived from the non-linear regression analysis of the percentage inhibition data using GraphPad Prism software (GraphPad Software).
The constructs tested comprise the antisense strand in the 5′-3′ orientation, and the sense strand in the 5′ to 3′ orientation, In Table 15, “D” is dose response (mRNA levels) and “W” is Western blot. […]

[1] = Stability of siRNA constructs in mouse plasma, capillary gel electrophoresis; type: in vitro ADME; details: for Stability (t ½ in hours): Table 17, 25% mouse plasma, 37° C., pseudo first-order half-life of intact siRNA duplex
Protocol: Intact duplex RNA was analyzed from diluted mouse-plasma using an extraction and capillary electrophoresis method similar to those previously described (Leeds, J. M., et al., 1996, Anal. Biochem., 235, 36-43; Geary, R. S., et al., 1999, Anal. Biochem., 274, 241-248. Heparin-treated mouse plasma, from 3-6 month old female Balb/c mice (Charles River Labs) was thawed from −80° C. and diluted to 25% (v/v) with phosphate buffered saline (140 mM NaCl, 3 mM KCl, 2 mM potassium phosphate, 10 mM sodium phosphate). Approximately 10 nmol of pre-annealed siRNA, at a concentration of 100 μM, was added to the 25% plasma and incubated at 37° C. for 0, 15, 30, 45, 60, 120, 180, 240, 360, and 420 minutes. Aliquots were removed at the indicated time, treated with EDTA to a final concentration of 2 mM, and placed on ice at 0° C. until analyzed by capillary gel electrophoresis (Beckman P/ACE MDQ-UV with eCap DNA Capillary tube). The area of the siRNA duplex peak was measured and used to calculate the percent of intact siRNA remaining. Adenosine triphosphate (ATP) was added at a concentration of 2.5 mM to each injection as an internal calibration standard. A zero time point was taken by diluting siRNA in phosphate buffered saline followed by capillary electrophoresis. Percent intact siRNA was plotted against time, allowing the calculation of a pseudo first-order half-life.

[2] = Table 16, cell line not given, read-out: IC50 (nM) mRNA, dsRNA to human survivin

Row | Substance | IC50 (survivin protein) | further results
1 | 339055_339085 (antisense AGUCCACACUCAGGACUGUG; sense CACAGUCCUGAGUGUGGACU; siRNA; unmodified RNA) | ≥ 100 nM | 
2 | 339049_339079 (antisense AGCACAGUUGAAACAUCUAA; sense UUAGAUGUUUCAACUGUGCU; siRNA; unmodified RNA) | 6.12 nM | 
3 | 339063_339093 (antisense AAGGAGUAUCUGCCAGACGC; sense GCGUCUGGCAGAUACUCCUU; siRNA; unmodified RNA) | 6.2 nM | 
4 | 339062_339092 (antisense UCCACCUGAAGUUCACCCCG; sense CGGGGUGAACUUCAGGUGGA; siRNA; unmodified RNA) | 65.2 nM | IC50 (human survivin mRNA; D (dose response, mRNA levels), HeLa cells, read-out: IC50): 1.8 nM
5 | 339054_339084 (antisense CAACAUGAGGUCCAGACACA; sense UGUGUCUGGACCUCAUGUUG; siRNA; unmodified RNA) | ≥ 100 nM | 
6 | 339051_339081 (antisense UCCCUCACUUCUCACCUGGU; sense ACCAGGUGAGAAGUGAGGGA; siRNA; unmodified RNA) | ≥ 100 nM | 
7 | ISIS 355713_355714: blunt-ended siRNA duplex, alternating 2'-O-methyl/2'-fluoro in opposing register: antisense 355713, sense 355714 (antisense UUUGAAAAUGUUGAUCUCC; sense GGAGAUCAACAUUUUCAAA; chemistry not fully specified) |  | IC50 (human survivin mRNA; [2]): 0.06 nM; Stability (t ½ in hours) [1]: >4 h; stability of construct in serum (mouse plasma) ([1]; in words): remains relatively unchanged and is stable in serum
8 | 339044_339074 (antisense AGGGCUGCCAGGCAGGGGGC; sense GCCCCUGCCUGGCAGCCCU; siRNA; listed as RNA, chemistry not fully specified) | 5.3 nM | 
9 | 339059_339089 (antisense GCUAUUCUGUGAAUUAACAA; sense UUGUUAAUUCACAGAAUAGC; siRNA; unmodified RNA) | 6.41 nM | 
10 | 339050_339080 (antisense AGAAGCACCUCUGGUGCCAC; sense GUGGCACCAGAGGUGCUUCU; siRNA; unmodified RNA) | ≥ 100 nM | 
11 | 339064_339094 (antisense UAAUCACACAGCAGUGGCAA; sense UUGCCACUGCUGUGUGAUUA; siRNA; unmodified RNA) | 5.45 nM | 
12 | ISIS 353537_343868: dsRNA duplex: antisense 353537 (4'-thio), sense 343868 (unmodified) (antisense UUUGAAAAUGUUGAUCUCC; sense GGAGAUCAACAUUUUCAAA; 4'-thio antisense, chemistry not fully specified) |  | IC50 (human survivin mRNA; [2]): 0.18 nM; Stability (t ½ in hours) [1]: 3 h
13 | 339046_339076 (antisense AACCCUGGAAGUGGUGCAGC; sense GCUGCACCACUUCCAGGGUU; siRNA; unmodified RNA) | 3.5 nM | 
14 | 339057_339087 (antisense CAGGGACUCUGUCUCCAUUC; sense GAAUGGAGACAGAGUCCCUG; siRNA; unmodified RNA) | ≥ 100 nM | 
15 | Compound U17: canonical siRNA targeted to human survivin, two deoxythymidines at 3' end of each strand (Table 14) (antisense GGAGAUCAACAUUUUCAAA; sense UUUGAAAAUGUUGAUCUCC; RNA, 3' dTdT, backbone not given here) |  | activity in quantitative RT-PCR analysis (human survivin mRNA; in words): potent activity; activity in Western blot analysis (survivin protein; in words): potent activity
16 | 339066_339096 (antisense AAAGGAUUUAGGCCACUGCC; sense GGCAGUGGCCUAAAUCCUUU; siRNA; unmodified RNA) | 1.72 nM | 
